Experimental data taken from PMC10572602, “Molecular Mechanism of STIL Coiled-Coil Domain Oligomerization” (International Journal of Molecular Sciences, 2023).
Like-named read-outs stand apart in the source and are kept apart here.

Tests used:
[1] = system: STIL CCD peptide; test: AUC sedimentation velocity (SV), oligomeric state; type: physicochemical; settings: for sw / mw (solution mass from c(s) fit) / f/f0 / sw(20,w) / oligomeric state (average number of monomers in the oligomer): AUC-SV, 60 krpm; for sw / mw (solution mass from c(s) fit) / oligomeric state (average number of monomers in the oligomer): 20 °C; for sw / mw (solution mass from c(s) fit) / f/f0 / sw(20,w): pH 6.8; for mw (solution mass from c(s) fit) / oligomeric state (average number of monomers in the oligomer): 95% confidence level; for oligomeric state (average number of monomers in the oligomer): continuous c(s), 25 mM sodium phosphate pH 6.8, NaCl
Method: Previously, we and others have shown by size-exclusion chromatography and multi-angle light scattering that the oligomerization of a STIL CCD peptide is concentration dependent. However, these studies were qualitative and the interaction was not quantified. To quantify the oligomerisation of the STIL CCD peptide, analytical ultracentrifugation (AUC) sedimentation velocity (SV) and sedimentation equilibrium (SE) experiments were performed (Figure 2A, Table 1 and Figures S4–S9, S18 and S19). AUC-SV experiments were conducted at several concentrations to explore how the oligomeric state changed with concentration in the low-to-high µM concentration range, and also to estimate the dissociation constants of the oligomerization of the STIL CCD peptide.
(§1) Analytical ultracentrifugation (AUC) experiments were carried out using a Beckman Optima XL-A or XL-I analytical ultracentrifuge. Measurements were performed at 20 °C unless otherwise stated, using an An-50 or An-60 rotor, in Sodium Phosphate Buffer pH 6.8 (25 mM Na2PO4 with addition of 137 mM NaCl, pH measured using Jenway (TM) 3510 benchtop and adjusted using 1M HCl and 1M NaOH solutions). The partial specific volume ( υ¯ ) for each peptide were calculated in Sedfit using values from Cohn and Edsall. The buffer densities and viscosities were calculated using UltraScan III [54].
Sedimentation velocity (SV) experiments were performed in EPON 2-channel centerpieces with quartz windows or aluminium centrepieces with sapphire windows. The samples were centrifuged at 50 or 60 krpm where stated, with absorbance measurements taken from a radial range of 5.7–7.3 cm. 120 scans were taken at 5 min intervals, the data were fit in Sedfit to a continuous c(s) distribution model at a 95% confidence level. The frictional ration and baseline were floated, and Time-invariant and Radial-invariant noise were fit. Initially data were fit between a range of Svedberg ratio of 0–15, but this was reduced to 0–3 for all data as there were no larger species. The residuals for each individual fit are shown in Figures S14–S17 as a bitmap in which the color indicates the difference between the model fit and the raw data over the radial range to which the data were fitted. The scans are in vertical chronological order.

[2] = system: STIL CCD peptide; test: AUC sedimentation equilibrium (SE), oligomeric state; type: physicochemical; settings: starting concentration 500 µM, triplicate, absorbance 280 nm, 95% confidence limits
Method: To quantify the dissociation constants of the possible monomer-dimer and dimer-tetramer transitions, we used fluorescence-based binding measurements. Using micro-scale thermophoresis, fluorescence measurements were taken at increasing concentrations of WT CCD peptide in a fixed background of 5 µM fluorophore-labelled peptide. […] Fitting the fluorescence data to the Hill equation provided a dissociation constant of 8 ± 2 µM and a cooperativity of 1.2 ± 0.3 (Figure 2B, Table S4). We interpret this as being for the monomer-dimer transition, and that the fluorescence measurements are insensitive to the higher-order oligomerization. […] To probe the possible dimer-tetramer transition, we turned to AUC-SE measurements with starting concentrations of 5, 10, and 20 µM of STIL WT CCD peptide (Figures S18 and S19). The equilibrated data were fitted first to a model for a single ideal species, which provided a species 2.9 × monomer mass (Table 1). […] It should be noted that the dimerization constant of the WT peptide was measured in the presence of 5% DMSO and using a fluorophore-labeled peptide, while the tetramerization constant was measured without DMSO and unlabeled peptides. The addition of the label and the presence of the DMSO, which was unavoidable for making the labeled peptide soluble, may have affected the measured dimerization constant. Thus, we avoid directly comparing the values obtained by the two methods.
as §1
AUC sedimentation equilibrium (SE) experiments were run at multiple concentrations in a 6-Channel Epon charcoal-filled centerpiece. The samples were centrifuged at a range of speeds between 22–48 krpm. Absorbance scans across the radial range were recorded twice at each speed to ensure equilibration. Data were fitted to single, ideal species models or monomer-dimer equilibrium using Sedphat. In total, 95% confidence limits were obtained via Monte-Carlo analysis of the obtained fits. The quality of the fit was evaluated using the χ^2 parameter to observe which model best fit the data. Both fits of the data, where performed in Figures S18–S23 with their corresponding fit information.

[3] = CD spectroscopy, helicity; type: physicochemical; settings: 5 °C
Text: (§2) Next, we used circular dichroism (CD) spectroscopy to probe the secondary structures of these WT CCD peptide assemblies. […] The spectra all had minima at 208 and 222 nm indicative of largely α-helical structures. From the high-concentration spectra we estimated ≈47% helix. To compare how the stabilities of these helical assemblies changed with concentration, we followed the changes in MRE222 with temperature over the same concentration range (Figure 2D, Table S1). Sigmoidal curves indicative of cooperative unfolding were apparent at all concentrations, indicating a cooperatively folded, oligomeric species. […] The temperature-dependent CD measurements were performed to determine the oligomerization-dependent thermal stability of the CCD. […] CD spectra of the peptides were recorded using a J-810 spectropolarimeter (Jasco) in a 0.1 cm and 1 cm quartz cuvette for far-UV CD spectroscopy, in a spectral range of 190 nm to 260 nm. The buffer used in the CD measurements was 25 mM sodium phosphate buffer pH = 6.8 with ionic strength of 154 mM (adjected by NaCl). The thermal melting of all STIL CCD peptides were measured as described. The graphs were fitted to Boltzmann equation in order to generate the Tm. Normalization to mean residue ellipticity was performed. The 100% helicity was calculated (with normalization to the length of the peptide and the condition of the measurement) as MRE × 10^−3 of −38 (Deg × cm^2 × dmol^−1 × res^−1).

[4] = type: physicochemical; settings: for Tm: CD 222 nm, Boltzmann fit
Text: as §2

[5] = ref [14]; cited from earlier work
Text: Presumably, this is due to the disruption of the hydrophobic CC interactions upon mutation from the hydrophobic Leu to the charged Glu. […] Other ...

L SPDAYRF LTEQDRQ LRLEQAQ IQRLLEA QSL-NH2 [STIL CCD718–749 L736E, STIL CCD peptide with destabilising L736E mutation; PDB 8oyk]
Oligomeric State (at 10 µM) ([1]; 10 µM): Monomer
sw ([1]; 10 µM): 0.590 S
mw (solution mass from c(s) fit) ([1]; 10 µM): 3849 Da
f/f0 ([1]; 10 µM): 1.460
sw(20,w) ([1]; 10 µM): 0.608 S
oligomeric state (average number of monomers in the oligomer) ([1]; 10 µM, absorbance): 1.00 × monomer mass
oligomeric state (average number of monomers in the oligomer) ([1]; 10 µM, absorbance, listed as CCD718–749-L736E): 1 × monomer mass
oligomeric state (average number of monomers in the oligomer) ([1]; 10 µM, absorbance, listed as STIL-L736E): 1.0 × monomer mass
sw ([1]; 500 µM): 0.721 S
mw (solution mass from c(s) fit) ([1]; 500 µM): 3871 Da
f/f0 ([1]; 500 µM): 1.201
sw(20,w) ([1]; 500 µM): 0.742 S
oligomeric state (average number of monomers in the oligomer) ([1]; 500 µM): 1 × monomer mass
oligomeric state (average number of monomers in the oligomer) ([1]; 500 µM, listed as STIL-L736E): 1.0 × monomer mass
mass, single species model, SE [2]: 3038 ± 292 Da
AUC oligomeric state, SE ([2]; single species fit, 20 °C, pH 6.8): 0.79 ± 0.08 (500 µM) × monomer mass
concentration dependence of CD spectrum / helical folding (in words) ([3]; different peptide concentrations (WT 5–100 µM), pH 6.8): no concentration dependence
MRE222 nm ([3]; CD at 50 µM, 25 mM sodium phosphate pH 6.8, 154 mM NaCl): −23.3 kdeg cm^2 dmol^−1 res^−1
% Helicity ([3]; from MRE222 (100% = −38), CD at 50 µM, 25 mM sodium phosphate pH 6.8, 154 mM NaCl): 62%
Tm ([4]; 5 µM, sodium phosphate pH 6.8): 18±1 °C
Tm ([4]; 25 µM, sodium phosphate pH 6.8): 17±2 °C
Tm ([4]; 50 µM, 25 mM sodium phosphate pH 6.8, 154 mM NaCl): 10 ± 2 °C
Tm ([4]; 100 µM, sodium phosphate pH 6.8): 12±1 °C
concentration dependence of Tm / thermal stability (in words) ([4]; pH 6.8): No detectable change in the Tm at different L736E concentrations
thermal stability of mutant peptide (in words) [5]: leads to a decrease in its thermal stability
